Active and inactive are the calls of the source. How the calls were made is not given here.
Test: Quorum luxo inducers, light production, v cholerae bh1651 luxod47e, confirmatory dose response (AID 624254)
Conditions: V. cholerae BH1651 luxOD47E, luciferase light induction, 6 h; at 50 µM (top of the series)

SMILES	activation (light increase)
N#CCSc1ccccc1NC(=O)COC(=O)CCNC(=O)c1ccc([N+](=O)[O-])cc1	inactive
Cc1cc2oc(=O)cc(CN3CCC(C)CC3)c2cc1Cl	inactive
Nc1nc(SCc2nc3sc4c(c3c(=O)[nH]2)CCCC4)n[nH]1	inactive
Cn1cnc(S(=O)(=O)Nc2ccccc2)c1	inactive
COc1cc(C(N)=O)cc(Br)c1OC	inactive
Cc1noc(C)c1NC(=O)Nc1cccc2c1O[C@H](CN(C)S(=O)(=O)c1cccs1)[C@H](C)CN([C@H](C)CO)C2=O	inactive
CCOC(=O)CSc1nc(C)cc(C)c1C#N	inactive
COC(=O)c1sc2ncccc2c1OCc1c(Cl)cccc1Cl	inactive
O=C(c1cn(-c2ccccc2)nc1-c1cccs1)N1CCOCC1	inactive
O=S(=O)(Nc1cccnc1)c1ccc(Oc2ccccc2)cc1	inactive
C=Cn1c(C(=O)O)ccc1-c1ccccc1	inactive
CC(C)[C@H](NC(=O)c1ccccc1F)C(=O)OCC(=O)NC1CC1	inactive
Cc1ccc(C)c(NC(=O)CN(C)C(=O)CCN2C(=O)c3ccccc3C2=O)c1	inactive
COc1ccc(CCN(C)C(=O)c2cc(S(=O)(=O)N3CCCCCC3)ccc2OC)cc1OC	inactive
O=C(COC(=O)CNC(=O)c1ccco1)NCCN1C(=O)CSC1=O	inactive
Cc1ccc(C)c(OCCC(=O)OCC(=O)NC2CC2)c1	inactive
CCCn1nnnc1NCc1ccc(N2CCCC2)cc1	inactive
CCCn1nnnc1NCc1ccc(N(CC)CC)cc1	inactive
CCC1C(=O)NCCN1C(=O)CCc1nnc(CCc2ccc(OC)cc2)o1 (stereo not drawn)	inactive
Cc1cc(NC2CCCCC2)nc(-c2ccccc2O)n1	inactive
C[C@@H]1CN([C@@H](C)CO)C(=O)c2cccc(NC(=O)Nc3ccc4c(c3)OCO4)c2O[C@@H]1CN(C)S(=O)(=O)c1ccccc1	inactive
CCCCN1C(=O)C(O)(CC(=O)c2ccccn2)c2ccccc21 (stereo not drawn)	inactive
Cc1cc(Cl)ccc1OCC(=O)OCC(=O)NC1CCS(=O)(=O)C1 (stereo not drawn)	inactive
Cn1cnc(S(=O)(=O)Nc2ccccc2F)c1	inactive
CCOC(=O)C1CCCc2c1[nH]c1c(C(=O)O)cccc21 (stereo not drawn)	inactive

SMILES	activation (light increase)
O=C(NCc1ccco1)c1cc2n(n1)C(C(F)(F)F)CC(c1ccc(Cl)c(Cl)c1)N2 (stereo not drawn)	inactive
CCCOC(=O)c1ccc(NC(=O)CCC(=O)OCC)cc1	inactive
O=C(Nc1ccc(Cl)c(Cl)c1)Nc1ccccc1C(=O)O	inactive
CCCOc1cc(C)c(S(=O)(=O)NCCOC)cc1C	inactive
CC(=O)c1ccc(S(=O)(=O)Nc2cccc(-c3ccc4nncn4n3)c2)cc1	inactive
COC(=O)c1nnn(-c2nonc2N)c1CSc1nc2ccccc2s1	inactive
COC(=O)c1cc(COC(=O)c2ccc(OC)c(S(=O)(=O)N3CCCC3)c2)oc1C	inactive
C=CCn1c(=O)c(C(=O)NC(C)c2ccccc2)c(O)c2ccccc21 (stereo not drawn)	inactive
Oc1ccc(-c2cn3c(n2)SCC3)cc1	inactive
Cc1cccc(NC(=O)CS(=O)(=O)c2cn(C)c3ccccc23)c1C	inactive
O=C(Oc1ccnc2cc(Cl)ccc12)N1CCCCCC1	inactive
O=C(Nc1ccc2oc(-c3ccc4ccccc4c3)nc2c1)c1cccs1	inactive
O=C(COC(=O)C1CCC1)Nc1ccc(Oc2ccccc2)cc1	inactive
CN(Cc1cn[nH]c1-c1cc2ccccc2o1)CC1CCOCC1	inactive
CCN(CC(=O)NCc1ccc(Cl)cc1)C(=O)CSc1ccccc1	inactive
CN(C)S(=O)(=O)c1ccc(NC(=S)NC(=O)Cc2ccccc2)cc1	inactive
O=C(CC1NC(=O)NC1=O)Nc1ccc(Cl)cc1 (stereo not drawn)	inactive
CCOC(=O)C1CCCN(C(=O)c2cc3c(OC)c(OC)c(OC)cc3[nH]2)C1 (stereo not drawn)	inactive
COc1ccc(OC)c(NC(=O)Nc2cccc(Cn3cccn3)c2)c1	inactive
COc1ccc(CC(=O)N2CCC(Nc3nc4ccccc4n3Cc3ccc(F)cc3)CC2)cc1	inactive
CCOC(=O)Cn1nc(C)n(-c2ccc(C(C)C)cc2)c1=O	inactive
Cc1ccc(S(=O)(=O)Nc2ccccc2F)cc1C(=O)NCCCN1CCCC1=O	inactive
Cc1nn2cnnc2c(C)c1Cc1c(F)cccc1Cl	inactive
O=C(CN1CCC(O)(c2cccc(C(F)(F)F)c2)CC1)NCCc1ccccc1	inactive
Cc1occc1-c1nnc(SCC(=O)NCc2cccs2)n1-c1ccc(F)cc1	inactive

SMILES	activation (light increase)
c1cn2cc(CN3CCOCC3)nc2s1	inactive
C[C@H](CO)N1C[C@H](C)[C@@H](CN(C)S(=O)(=O)c2ccc(Cl)cc2)Oc2c(NC(=O)Nc3ccc4c(c3)OCO4)cccc2C1=O	inactive
CCC1(CC)NC(=O)N(CC(=O)OCC(=O)NC(=O)c2ccccc2OC)C1=O	inactive
CC(C)CC(=O)Nc1ccccc1N1CCN(C(=O)c2ccccc2)CC1	inactive
COC(=O)c1ccc(CSc2nnc3c(Cl)cc(Cl)cn23)o1	inactive
O=C(NCCOc1ccc(Cl)cc1)c1ccco1	inactive
CCc1ccc(C(=O)OCC(=O)NC2CCCC2)cc1	inactive
COc1cc(S(=O)(=O)N(Cc2cccs2)C2CC2)ccc1-n1cnnn1	inactive
O=Cc1cc(OCc2ccccc2)ccc1B(O)O	inactive
CN(C)c1nc(N)ncc1-c1ccc(Oc2ccccc2)cc1	inactive
CC(C)CNC(=O)COC(=O)/C=C/c1ccco1	inactive
CCOc1ccc(S(=O)(=O)N(CCO)CCO)cc1-c1nc2c(C(C)(C)C)nn(C)c2c(=O)[nH]1	inactive
COc1ccc(-n2c(COc3ccccc3)nnc2SCc2ccc(C#N)cc2)cc1	inactive
Cc1ccc(S(=O)(=O)N2CCN(C(=O)COC(=O)/C=C/c3ccc(F)cc3)CC2)c(C)c1	inactive
CC(C)Oc1ccc(OCCCN2CCCCCC2)cc1	inactive
COCCN(C(=O)C1CCC1)c1nnc(-c2cccnc2)s1	inactive
CCCC(=O)NC1CCCc2c1cnn2-c1ccc(C)c(C)c1 (stereo not drawn)	inactive
CN(Cc1nc2ccccc2n1C)C(=O)c1ccco1	inactive
COc1ccccc1NC(=O)COC(=O)c1cc(C)oc1C	inactive
COc1ccccc1NC(=O)CN1CCN(C(=O)C2CCCO2)CC1 (stereo not drawn)	inactive
CCN(CC1COc2ccccc2O1)C(=S)Nc1ccccc1 (stereo not drawn)	inactive
O=C(Nc1cccc(Cl)c1)Nc1ccc(Cl)cn1	inactive
COc1ccc(OCC(=O)Nc2ccccc2OC)cc1	inactive
CC(C)NC(=O)c1cnc(Sc2ncc(C(F)(F)F)cc2Cl)n1C	inactive
CC(C)c1ccc(C(=O)OCC(=O)NC2CCCC2)cc1	inactive

SMILES	activation (light increase)
O=C(NCc1ccccn1)c1c(O)c2c([nH]c1=O)CCCC2	inactive
CCCCN(Cc1nc2ccccc2c(=O)[nH]1)C(=O)CN1C(=O)NC2(CCCCC2)C1=O	inactive
CC(=O)Nc1ccc(Nc2nc(C)nc3c2oc2ccccc23)cc1	inactive
CN1CC(=O)N(CC(=O)Nc2ccc3c(c2)CCC3)C1=O	inactive
Cc1cc(C(=O)OCC(=O)Nc2c(Cl)cccc2C(F)(F)F)c(C)o1	inactive
O=C(COC(=O)[C@H](Cc1c[nH]c2ccccc12)NC(=O)c1ccc(Cl)cc1)Nc1ccc2c(c1)OCO2	inactive
Cn1cnc(S(=O)(=O)Nc2ccc(OC(C)(C)C)cc2)c1	inactive
COc1ccc(CCNC(=O)c2nnn(-c3ccc4c(c3)OCCO4)c2N)cc1OC	inactive
CCOC(=O)N1CCC(NC(=O)C2CCN(C(=O)N3CC(C)Oc4ccc(C)cc43)CC2)CC1 (stereo not drawn)	inactive
COc1ccc(S(=O)(=O)Nc2cccc(S(=O)(=O)N3CCCC3)c2)cc1OC	inactive
COC(=O)c1cc(NC(=O)C2CC=CCC2C(=O)O)cc(C(=O)OC)c1 (stereo not drawn)	inactive
COc1ccc(S(=O)(=O)N2CCOCC2)cc1NC(=O)CSc1nnc(C2CC2)n1C1CC1	inactive
CCCNC(=O)Cc1ccsc1	inactive
O=C(c1cc2ccccc2cc1O)N1CCN(c2ccccc2O)CC1	inactive
CCN1CCCC1CNC(=O)c1cc(OC)c(OC)c(OC)c1 (stereo not drawn)	inactive
CC1(NC(=O)C23CC4CC(CC(C4)C2)C3)CCS(=O)(=O)C1 (stereo not drawn)	inactive
CCCS(=O)(=O)N1CCCC(C(=O)NCCCN(C)c2ccccc2)C1 (stereo not drawn)	inactive
CC(=O)c1cccc(NC(=O)COC(=O)Cc2ccc(Cl)cc2)c1	inactive
Cn1c(=O)oc2cc(S(=O)(=O)N3CCN(c4ccc(F)cc4)CC3)ccc21	inactive
Cc1ccc(CN(Cc2cc3cc(C)ccc3[nH]c2=O)C(=O)N2CCOCC2)cc1	inactive
Cn1c(CCNC(=O)c2ccco2)nc2cc(NC(=O)NC3CCCCC3)ccc21	inactive
Cc1cccc(NC(=O)CSc2nc(=O)n(CCN3CCOCC3)c3c2CCCC3)c1C	inactive
CC(C)NC(=O)c1ccc(-c2cccc(C(F)(F)F)c2)o1	inactive

— PubChem BioAssay AID624254 (Broad Institute, 2012)
